In patent US11028095B2, “Spiro-lactam and bis-spiro-lactam NMDA receptor modulators and uses thereof” (Aptinyx Inc., priority 2016, dated 2021):
Like-named read-outs stand apart in the source and are kept apart here.

Key:
[1] = biological target: T1, NMDAR2C expressing HEK cell membranes (Homo sapiens, UniProt Q05586+Q14957); assay: NMDAR agonist assay, [3H]MK-801 binding, NMDAR2C; format: biochemical; settings: for EC50: [3H]MK-801 binding
T1 construct: expressed in transfected cells; host or cells: HEK cells (membrane extract)
T1 sequence (Q14957 20-1233, other chains not shown): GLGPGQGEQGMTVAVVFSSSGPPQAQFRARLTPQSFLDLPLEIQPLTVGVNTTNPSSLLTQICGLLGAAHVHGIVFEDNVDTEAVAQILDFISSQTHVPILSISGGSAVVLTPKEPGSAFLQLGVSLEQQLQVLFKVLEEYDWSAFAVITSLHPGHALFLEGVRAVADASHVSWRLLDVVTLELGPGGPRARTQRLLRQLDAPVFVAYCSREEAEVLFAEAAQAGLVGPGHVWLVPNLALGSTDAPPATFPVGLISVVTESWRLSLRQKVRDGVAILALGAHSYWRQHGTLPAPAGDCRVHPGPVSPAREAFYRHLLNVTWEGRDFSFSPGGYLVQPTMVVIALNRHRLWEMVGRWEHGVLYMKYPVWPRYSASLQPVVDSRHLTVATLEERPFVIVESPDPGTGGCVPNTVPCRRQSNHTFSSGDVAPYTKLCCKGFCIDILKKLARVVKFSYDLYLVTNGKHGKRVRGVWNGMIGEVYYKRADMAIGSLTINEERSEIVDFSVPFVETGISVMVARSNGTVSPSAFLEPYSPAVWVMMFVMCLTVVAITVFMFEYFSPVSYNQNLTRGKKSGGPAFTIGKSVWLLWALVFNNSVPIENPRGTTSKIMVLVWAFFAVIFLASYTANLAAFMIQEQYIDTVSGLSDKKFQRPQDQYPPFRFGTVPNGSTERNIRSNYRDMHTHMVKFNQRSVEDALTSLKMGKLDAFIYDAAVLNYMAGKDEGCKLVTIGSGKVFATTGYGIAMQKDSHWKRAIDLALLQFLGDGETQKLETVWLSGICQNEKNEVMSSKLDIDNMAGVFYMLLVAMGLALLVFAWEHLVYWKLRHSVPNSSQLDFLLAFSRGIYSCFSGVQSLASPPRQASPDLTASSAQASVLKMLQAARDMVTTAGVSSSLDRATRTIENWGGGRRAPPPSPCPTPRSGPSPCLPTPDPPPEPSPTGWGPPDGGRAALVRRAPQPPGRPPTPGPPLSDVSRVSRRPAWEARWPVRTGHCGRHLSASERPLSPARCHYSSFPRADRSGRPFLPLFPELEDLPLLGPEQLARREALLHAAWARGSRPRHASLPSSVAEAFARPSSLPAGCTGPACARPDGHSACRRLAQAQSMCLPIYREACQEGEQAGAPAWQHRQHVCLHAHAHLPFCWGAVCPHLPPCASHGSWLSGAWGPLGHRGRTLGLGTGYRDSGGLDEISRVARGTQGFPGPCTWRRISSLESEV
Experimental: (§1) (nonequilibrium conditions).
(§2) The baseline value was determined from the best fit curve of the DPM values modeled using the GraphPad program and the log(agonist) vs. response(three parameters) algorithm was then subtracted from all points in the dataset.

[2] = tested on: positive (hedonic) 50-kHz ultrasonic vocalizations (USVs); assay: Positive Emotional Learning (PEL) test; format: in vivo; settings: rat, PO, one hour after administration
Experimental: Experiments were conducted as described in Burgdorf et al., “The effect of selective breeding for differential rates of 50-kHz ultrasonic vocalizations on emotional behavior in rats,” Devel. […] Rat 50-kHz ultrasonic vocalization (hedonic USVs) is a validated model for the study of positive affective state and is best elicited by rough-and-tumble play.
The PEL assay measures the acquisition of positive (hedonic) 50-kHz ultrasonic vocalizations (USVs) to a social stimulus, heterospecific rough and tumble play stimulation. Heterospecific rough-and-tumble play stimulation was administered by the experimenter's right hand. One hour after administration of test compound or vehicle negative control (0.5% sodium carboxymethyl cellulose in 0.9% sterile saline vehicle), animals received 3 min of heterospecific rough-and-tumble play that consisted of alternating 15 sec blocks of heterospecific play and 15 sec of no-stimulation. […] Frequency modulated 50-kHz USVs that occurred during each of the no-stimulation periods were quantified to measure PEL. Animals were not habituated to play stimulation before testing. Positive emotional learning was measured during the conditioned stimulus (CS) trials preceding the tickle unconditioned stimulus (UCS) trials. Animals received 15 second trials consisting of 6 CS and 6 UCS trials each (3 min total).

[3] = Microsomal stability (Human); format: in vitro ADME; settings: human microsomes
Experimental: (§3) Microsomal stability of disclosed compounds was investigated. The following table indicates the percent of compound remaining after 60 minutes.

[4] = Plasma stability (Rat); format: in vitro ADME
Experimental: (§4) Plasma stability of disclosed compounds was investigated. The following table indicates the percent of compound remaining after 60 minutes.

[5] = biological target: T2, NMDAR2B expressing HEK cell membranes (Homo sapiens, UniProt Q05586+Q13224); assay: NMDAR agonist assay, [3H]MK-801 binding, NMDAR2B; format: biochemical; settings: for EC50: [3H]MK-801 binding; for Emax: relative to 1 mM glycine
T2 construct: expressed in transfected cells; host or cells: HEK cells (membrane extract)
Experimental: as §1, §2

[6] = biological target: T3, NMDAR2B expressing HEK cell membranes (Homo sapiens, UniProt Q13224); assay: NMDAR agonist assay, [3H]MK-801 binding, NMDAR2B; format: biochemical; settings: 50 μM glutamate; relative to 1 mM glycine
T3 construct: expressed in transfected cells; host or cells: HEK cells (membrane extract)
T3 sequence (Q13224 27-1484, other chains not shown): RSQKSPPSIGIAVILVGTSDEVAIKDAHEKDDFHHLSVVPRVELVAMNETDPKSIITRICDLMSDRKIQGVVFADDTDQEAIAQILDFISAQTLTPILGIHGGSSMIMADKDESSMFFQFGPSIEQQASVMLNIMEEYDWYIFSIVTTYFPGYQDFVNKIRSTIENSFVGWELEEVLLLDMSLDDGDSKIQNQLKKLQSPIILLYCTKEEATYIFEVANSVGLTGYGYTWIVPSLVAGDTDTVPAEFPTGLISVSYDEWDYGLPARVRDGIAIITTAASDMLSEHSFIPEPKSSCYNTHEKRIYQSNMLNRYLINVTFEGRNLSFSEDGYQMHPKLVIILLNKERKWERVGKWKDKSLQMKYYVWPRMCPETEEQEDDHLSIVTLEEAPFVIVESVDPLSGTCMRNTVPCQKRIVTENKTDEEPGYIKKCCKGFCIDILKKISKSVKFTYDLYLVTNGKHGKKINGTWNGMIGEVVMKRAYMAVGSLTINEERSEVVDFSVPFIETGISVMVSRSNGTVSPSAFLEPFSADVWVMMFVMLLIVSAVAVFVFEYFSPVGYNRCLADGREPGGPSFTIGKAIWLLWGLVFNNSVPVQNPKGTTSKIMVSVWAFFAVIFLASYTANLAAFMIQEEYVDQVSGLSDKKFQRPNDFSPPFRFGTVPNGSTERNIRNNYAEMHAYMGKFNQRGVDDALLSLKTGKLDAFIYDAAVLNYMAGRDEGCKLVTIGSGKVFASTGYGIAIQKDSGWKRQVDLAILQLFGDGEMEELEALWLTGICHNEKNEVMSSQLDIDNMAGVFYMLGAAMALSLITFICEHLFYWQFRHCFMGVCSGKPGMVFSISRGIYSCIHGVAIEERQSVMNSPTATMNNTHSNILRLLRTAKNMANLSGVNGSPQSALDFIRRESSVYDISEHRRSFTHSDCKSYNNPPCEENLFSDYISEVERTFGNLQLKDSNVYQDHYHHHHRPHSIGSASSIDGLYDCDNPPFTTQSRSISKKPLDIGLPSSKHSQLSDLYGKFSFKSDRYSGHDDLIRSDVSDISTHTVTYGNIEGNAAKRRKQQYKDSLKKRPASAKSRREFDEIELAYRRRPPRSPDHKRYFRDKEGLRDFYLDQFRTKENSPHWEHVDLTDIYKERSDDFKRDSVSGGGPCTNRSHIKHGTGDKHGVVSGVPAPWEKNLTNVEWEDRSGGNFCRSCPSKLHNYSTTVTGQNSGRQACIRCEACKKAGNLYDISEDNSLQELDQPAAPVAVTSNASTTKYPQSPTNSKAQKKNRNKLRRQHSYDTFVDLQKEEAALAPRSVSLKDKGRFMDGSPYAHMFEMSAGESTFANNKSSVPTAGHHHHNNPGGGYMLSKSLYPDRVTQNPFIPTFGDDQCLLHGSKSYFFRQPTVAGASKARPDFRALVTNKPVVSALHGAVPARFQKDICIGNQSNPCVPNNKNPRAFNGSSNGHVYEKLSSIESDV
Experimental: as §1, §2

[7] = Microsomal stability (Rat); format: in vitro ADME; settings: rat microsomes
Experimental: as §3

[8] = biological target: T4, NMDAR2D expressing HEK cell membranes (Homo sapiens, UniProt O15399+Q05586); assay: NMDAR agonist assay, [3H]MK-801 binding, NMDAR2D; format: biochemical; settings: for Emax: read-out: NMDAR2D: % maximal [3H]MK-801 binding relative to 1 mM glycine; for EC50: [3H]MK-801 binding, read-out: NMDAR2D: log EC50 (converted)
T4 construct: expressed in transfected cells; host or cells: HEK cells (membrane extract)
T4 sequence (O15399 28-1336, other chains not shown): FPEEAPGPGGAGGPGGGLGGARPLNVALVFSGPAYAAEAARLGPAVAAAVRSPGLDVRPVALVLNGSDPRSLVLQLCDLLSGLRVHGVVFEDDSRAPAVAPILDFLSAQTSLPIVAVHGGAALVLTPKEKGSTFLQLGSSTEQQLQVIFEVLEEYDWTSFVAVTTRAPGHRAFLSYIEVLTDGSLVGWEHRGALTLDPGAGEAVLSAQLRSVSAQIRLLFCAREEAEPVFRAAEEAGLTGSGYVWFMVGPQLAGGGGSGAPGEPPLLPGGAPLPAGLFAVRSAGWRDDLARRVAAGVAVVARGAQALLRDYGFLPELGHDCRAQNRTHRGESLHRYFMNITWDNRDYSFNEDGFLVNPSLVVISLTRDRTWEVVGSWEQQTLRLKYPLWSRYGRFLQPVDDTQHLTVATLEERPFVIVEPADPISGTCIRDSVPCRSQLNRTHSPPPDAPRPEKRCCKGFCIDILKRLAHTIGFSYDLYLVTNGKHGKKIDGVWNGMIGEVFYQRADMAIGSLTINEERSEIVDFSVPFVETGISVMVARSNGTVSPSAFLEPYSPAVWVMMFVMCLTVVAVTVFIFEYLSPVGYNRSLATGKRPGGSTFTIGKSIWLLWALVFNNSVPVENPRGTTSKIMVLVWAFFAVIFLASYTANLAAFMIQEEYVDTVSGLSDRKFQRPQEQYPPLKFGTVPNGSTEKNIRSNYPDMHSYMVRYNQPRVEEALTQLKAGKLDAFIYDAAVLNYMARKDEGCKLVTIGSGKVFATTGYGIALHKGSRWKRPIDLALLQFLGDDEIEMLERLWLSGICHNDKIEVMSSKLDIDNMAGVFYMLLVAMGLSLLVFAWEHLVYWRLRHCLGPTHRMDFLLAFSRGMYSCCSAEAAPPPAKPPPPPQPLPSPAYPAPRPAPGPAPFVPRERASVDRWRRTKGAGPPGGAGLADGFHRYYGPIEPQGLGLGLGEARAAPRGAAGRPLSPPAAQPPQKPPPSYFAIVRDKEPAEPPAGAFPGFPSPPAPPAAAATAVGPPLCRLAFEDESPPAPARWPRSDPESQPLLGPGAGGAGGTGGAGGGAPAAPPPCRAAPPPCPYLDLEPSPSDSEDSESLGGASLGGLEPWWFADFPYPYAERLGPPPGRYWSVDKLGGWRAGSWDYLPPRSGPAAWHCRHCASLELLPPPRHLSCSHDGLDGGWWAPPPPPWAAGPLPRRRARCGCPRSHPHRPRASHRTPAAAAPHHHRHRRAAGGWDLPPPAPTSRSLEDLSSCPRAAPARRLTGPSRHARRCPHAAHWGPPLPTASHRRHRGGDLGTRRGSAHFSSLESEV
Experimental: as §1, §2

[9] = Plasma stability (Human); format: in vitro ADME
Experimental: as §4

[10] = biological target: T5, NMDAR2A expressing HEK cell membranes (Homo sapiens, UniProt Q05586+Q12879); assay: NMDAR agonist assay, [3H]MK-801 binding, NMDAR2A; format: biochemical; settings: for EC50: [3H]MK-801 binding; for Emax: relative to 1 mM glycine
T5 construct: expressed in transfected cells; host or cells: HEK cells (membrane extract)
Experimental: as §1, §2

[11] = biological target: T6, NMDAR2A expressing HEK cell membranes (Homo sapiens, UniProt Q12879); assay: NMDAR agonist assay, [3H]MK-801 binding, NMDAR2A; format: biochemical; settings: 50 μM glutamate; relative to 1 mM glycine
T6 construct: expressed in transfected cells; host or cells: HEK cells (membrane extract)
Experimental: as §1, §2

[12] = Oral pharmacokinetics (plasma, brain, CSF); format: in vivo; settings: Sprague Dawley rats, per os, 10 mg/kg; for AUC(0-t) / Tmax / Cmax / bioavailability: rat, plasma, po; for Tmax: normal saline, read-out: Tmax; for Cmax: read-out: Cmax
Experimental: In another experiment, Sprague Dawley rats were dosed per os using a normal saline formulation containing 10 mg/kg of the compounds identified in the table below. Plasma, brain, and CSF samples were analyzed at various time points over a 24 hour period. The table below summarizes the results of the oral pharmacokinetics.

[13] = IV pharmacokinetics; format: in vivo; settings: rat, in vivo, 2 mg/kg, Sprague Dawley rats, normal saline; for C0: read-out: C0; for Vd: read-out: Vss
Experimental: Sprague Dawley rats were dosed intravenously using a normal saline formulation containing 2 mg/kg of the compounds identified in the below table. The table below summarizes the results of the IV pharmacokinetics.

[14] = read-out: NMDAR2C: % maximal [3H]MK-801 binding relative to 1 mM glycine
[15] = NMDAR2B: log EC50, 50 μM glutamate
[16] = NMDAR2A: log EC50, 50 μM glutamate
[17] = 50 μM glutamate, relative to 1 mM glycine, read-out: NMDAR2C A: % maximal [3H]MK-801 binding relative to 1 mM glycine
[18] = 50 μM glutamate, read-out: NMDAR2B log EC50 (converted)
[19] = 50 μM glutamate, read-out: NMDAR2B: % maximal [3H]MK-801 binding relative to 1 mM glycine
[20] = 50 μM glutamate, relative to 1 mM glycine
[21] = 50 μM glutamate, read-out: NMDAR2A: log EC50 (converted)
[22] = 50 μM glutamate, read-out: NMDAR2C: log EC50 (converted)

NMDAR2B: % maximal [3H]MK-801 binding relative to 1 mM glycine [6]	NMDAR2A: % maximal [3H]MK-801 binding relative to 1 mM glycine [11]	AUC(0-t) ([12]; Sprague Dawley) [ng·h/mL]	Tmax ([12]; Sprague Dawley) [min]	Cmax ([12]; Sprague Dawley) [ng/mL]	Emax [1, 17] [%]	AUC(0-t) ([13]; Sprague Dawley, iv) [ng·h/mL]	clearance ([13]; Sprague Dawley, iv) [mL/min/kg]	half-life ([13]; Sprague Dawley, iv) [min]	C0 ([13]; Sprague Dawley, iv) [ng/mL]	Vd ([13]; Sprague Dawley, iv) [L/kg]	EC50 [5, 18] [nM]	EC50 ([8]; 50 μM glutamate) [nM]	EC50 [10, 21] [nM]	SMILES	Microsomal (Human): percent of compound remaining after 60 minutes [3] [%]	Plasma (Rat): percent of compound remaining after 60 minutes [4] [%]	Microsomal (Rat): percent of compound remaining after 60 minutes [7] [%]	Plasma (Human): percent of compound remaining after 60 minutes [9] [%]	CSF Cmax [12] [ng/mL]	Brain Cmax [12] [ng/mL]	other results
–	–	350	49.8	133	< 100	3330	9.84	21.6	6820	0.28	< 1	< 1	< 1	C[C@@H](O)[C@H](NC(=O)C1CCC2(CNC2=O)N1)C(N)=O (single isomer, unassigned) [AQ-1]	100	100	84	100	0	0	% F [12]: 2%; Max Effect (mean number of 50 kHz USVs per 15 seconds) ([2]; dose 0.1 mg/kg, 0.1 mg/kg): ** (**: 11-16.9); Emax [5, 19]: < 100%; Emax [8, 20]: < 100%; Emax ([10]; 50 μM glutamate, read-out: NMDAR2A: % maximal [3H]MK-801 binding relative to 1 mM glycine): < 100%
++ (>100%=++)	+ (<100%=+)	–	–	–	< 100	–	–	–	–	–	–	< 1	< 1	CC(C)(C)OC(=O)N1CC2(CN(OCc3ccccc3)C2=O)CC12CN(OCc1ccccc1)C2=O (single isomer, unassigned) [AW, tert-butyl 2,8-bis(benzyloxy)-1,7-dioxo-2,8,10-triazadispiro[3.1.36.24]undecane-10-carboxylate]	2	0	0	90	–	–	EC50 [1, 22]: < 1 nM; Max Effect (mean number of 50 kHz USVs per 15 seconds) ([2]; dose 0.1 mg/kg): ** (**: 11-16.9); Emax [8, 20]: < 100%
+ (<100%=+)	− (−=0)	614	15	859	> 100	656	50.5	20.4	2390	0.82	< 1	–	> 100	CC(C)(C)OC(=O)N1C(C(N)=O)CCC12CN(OCc1ccccc1)C2=O (single isomer, unassigned) [BH, tert-butyl 2-(benzyloxy)-6-carbamoyl-1-oxo-2,5-diazaspiro[3.4]octane-5-carboxylate]	100	95	100	90	36.66	0	bioavailability ([12]; Sprague Dawley): 18%; EC50 [1, 22]: < 1 nM; Max Effect (mean number of 50 kHz USVs per 15 seconds) ([2]; dose 0.1 mg/kg): ** (**: 11-16.9)
–	–	–	–	–	–	–	–	–	–	–	–	–	–	CC(C)CN1[C@]2(CC[C@]13CNC3=O)CNC2=O [Compound AF, 5-isobutyl-2,5,8-triazadispiro[3.1.36.24]undecane-1,7-dione]	92	90	87	99	2781	1313.8	AUC(0-t) [12]: 16100 ng·h/mL; bioavailability [12]: 82%; Tmax [12]: 25.2 min; Cmax [12]: 7250 ng/mL; Emax [1, 14]: > 100%; Max Effect (mean number of 50 kHz USVs per 15 seconds) ([2]; dose 0.001-1 mg/kg): ** (**: 11-16.9); AUC(0-t) [13]: 6450 ng·h/mL; clearance [13]: 5.2 mL/min/kg; half-life [13]: 299 min; C0 [13]: 3900 ng/mL; Vd [13]: 0.59 L/kg; EC50 [5, 15]: < 1 nM; Emax ([5]; read-out: NMDAR2B: % maximal [3H]MK-801 binding relative to 1 mM glycine, 50 μM glutamate): < 100%; Emax [8]: < 100%; EC50 [10, 16]: < 1 nM; Emax ([10]; read-out: NMDAR2A: % maximal [3H]MK-801 binding relative to 1 mM glycine, 50 μM glutamate): < 100%

SMILES	NMDAR2B: % maximal [3H]MK-801 binding relative to 1 mM glycine [6]	NMDAR2A: % maximal [3H]MK-801 binding relative to 1 mM glycine [11]	AUC(0-t) ([12]; Sprague Dawley) [ng·h/mL]	Tmax ([12]; Sprague Dawley) [min]	Cmax ([12]; Sprague Dawley) [ng/mL]	Emax [1, 17] [%]	AUC(0-t) ([13]; Sprague Dawley, iv) [ng·h/mL]	clearance ([13]; Sprague Dawley, iv) [mL/min/kg]	half-life ([13]; Sprague Dawley, iv) [min]	C0 ([13]; Sprague Dawley, iv) [ng/mL]	Vd ([13]; Sprague Dawley, iv) [L/kg]	EC50 [5, 18] [nM]	EC50 ([8]; 50 μM glutamate) [nM]	EC50 [10, 21] [nM]	Microsomal (Human): percent of compound remaining after 60 minutes [3] [%]	Plasma (Rat): percent of compound remaining after 60 minutes [4] [%]	Microsomal (Rat): percent of compound remaining after 60 minutes [7] [%]	Plasma (Human): percent of compound remaining after 60 minutes [9] [%]	CSF Cmax [12] [ng/mL]	Brain Cmax [12] [ng/mL]	other results
CN1C2(CCC13CNC3=O)CNC2=O (single isomer, unassigned) [AB-2, 5-methyl-2,5,8-triazadispiro[3.1.36.24]undecane-1,7-dione]	+ (<100%=+)	− (−=0)	–	–	–	–	–	–	–	–	–	–	–	–	72	83	78	86	–	–	EC50 ([1]; NMDAR2C: log EC50, 50 μM glutamate): < 1 nM; Emax [1, 14]: < 100%; Max Effect (mean number of 50 kHz USVs per 15 seconds) ([2]; dose 0.001-1 mg/kg): ** (**: 11-16.9); EC50 [5, 15]: < 1 nM; Emax [8]: < 100%; EC50 [10, 16]: > 100 nM
C[C@@H](O)[C@@H](C(N)=O)N1CC2(CCC3(CN([C@H](C(N)=O)[C@@H](C)O)C3=O)N2C(=O)OC(C)(C)C)C1=O (stereo partly drawn) [BY, tert-butyl 2,8-bis((2S,3R)-1-amino-3-hydroxy-1-oxobutan-2-yl)-1,7-dioxo-2,5,8-triazadispiro[3.1.36.24]undecane-5-carboxylate]	–	–	486	49.8	156	< 100	5960	5.6	38.4	10200	0.15	< 1	> 100	> 100	100	82	81	81	0	0	bioavailability ([12]; Sprague Dawley): 2%; EC50 [1, 22]: < 1 nM; Max Effect (mean number of 50 kHz USVs per 15 seconds) ([2]; dose 0.1 mg/kg): ** (**: 11-16.9); Emax [5, 19]: > 100%; Emax [8, 20]: 0%
